Each structure is given as a SMILES string.

For data set [1], the system named is NK cell lysis of primary CLL cells. The experiment in a line: Rituximab ADCC 51Cr release assay, primary autologous CLL targets. The format is cell-based, human. The settings on record: 1 μM; E:T 25:1. An excerpt: Cell culture conditions were as follows. […] The HER18 cells were maintained in DEM supplemented with fetal bovine serum, penicillin-streptomycin and. Prior to assay, HER18 cells were harvested using trypsin-EDTA, washed with phosphate-buffered saline (PBS) containing 5% serum and viable cells were counted. For culture of primary target cells, peripheral blood from CLL patients was subject to density centrifugation to obtain peripheral blood mononuclear cells (PBMC). Cell preparations were washed and then subject to positive selection of CD5^+CD19^+ CLL cells using magnetic beads (MACS, Miltenyi Biotech). Cell preparations were used fresh after selection. NK cells from CLL patients and healthy volunteers were enriched from peripheral blood collected in sodium citrate anticoagulant tubes and then subject to density centrifugation. Removal of non NK cells was performed using negative selection by MACS separation. Freshly isolated NK cells were washed three times, enumerated, and then used immediately for ADCC assays.
ADCC assays were performed as follows. Briefly, target cells (Raji or primary CLL) were labeled by incubation at 37° C. with 100 μCi ^51Cr for 4 hours prior to co-culture with NK cells. […] Supernatants were harvested and ^51Cr release was measured by liquid scintillation counting. […]

The subject of the next data set is CD8+ T cells. The experiment in a line: CD8+ T cell viability on anti-TCR/anti-CD28 coated wells. The format is cell-based. The note with it: 4 days, neutral culture conditions. How it is done:
Total T cells were plated on anti-TCR and anti-CD28 coated wells in the presence of both BTK inhibitors. Neutral culture conditions were used that will not polarize T cells to a helper lineage. […] Statistical significance was calculated using the Mann Whitney T-test.

For a further data set, the system named is CYP enzymes. The experiment in a line: Nonclinical CYP interaction studies. The format is in vitro ADME.
A further data set deals with CXCL12 and CCL2. The experiment in a line: Plasma chemokines in treated CLL patients. The format is in vivo, human. The settings on record: CLL patients on treatment.
Another data set deals with CLL. The experiment in a line: Clinical study of Formula (2) in CLL (ALC, SPD, PFS, immune cells, apoptosis, chemokines). The note with it: CLL patients, relative to ibrutinib (Byrd et al. 2013).
A short description of data set [2]: In vitro metabolism in hepatocytes with 14C-labeled drug. The format is in vitro ADME, and human. The settings on record: mouse, rat, dog, rabbit, monkey, human hepatocytes.
A further data set addresses T1, BTK (Mus musculus, UniProt P35991).
T1 construct: endogenous in cells; host or cells: granulocytic and monocytic MDSCs from tumor-bearing PDA mice
The experiment in a line: Molecular probe assay of BTK occupancy in MDSCs of tumor bearing PDA mice. The format is in vivo. The settings on record: 15 mg/kg BID, Day 8, 4 hours post dose. The text has this: A molecular probe assay was used to calculate the percent irreversible occupancy of total BTK.

A short description of data set [3]: GLP functional observation battery. The format is in vivo. The note with it: rats, doses through 300 mg/kg. An excerpt: (§1) Formula (2) was well tolerated in standard in vivo Good Laboratory Practices (GLP) studies of pharmacologic safety.
Data set [4] is described as follows: Cardiovascular function study in awake telemeterized dogs. The format is in vivo. The settings on record: male beagle dogs, single doses through 30 mg/kg.
Description: as §1

Data set [5] has as its system CD8+ T cell. The experiment in a line: Cytotoxicity assay for CD8+ T cell function. The format is cell-based. The note with it: relative to vehicle. The text has this: FIG. 38 illustrates the results of the cytotoxicity assay for CD8^+ T cell function.
The test system of data set [6] is BCR; activation markers CD69 and CD86. The experiment in a line: In vivo potency: BCR stimulated with IgM, CD69 and CD86 expression by flow cytometry. The note with it: mice gavaged, sacrificed 3 hours post-dose, compared with ibrutinib. The method, then:
Mice were gavaged at increasing drug concentration and sacrificed at one time point (3 hours post-dose). BCR is stimulated with IgM and the expression of activation markers CD69 and CD86 are monitored by flow cytometry to determine EC50 values.

The subject of data set [7] is CD8+ T cell. The experiment in a line: IFN-γ level measurements for CD8+ T cell function. The format is cell-based. The settings on record: relative to vehicle. The text has this:
FIG. 39 illustrates the results of IFN-γ level measurements for CD8^+ T cell function.

The test system of data set [8] is NK cells co-cultured with antibody-coated DHL-4 or HER18 target cells. The experiment in a line: NK cell lytic granule release (CD107a) by flow cytometry. The format is cell-based, human. The settings on record: 1 μM; HER18 targets, trastuzumab 10 μg/mL.
Description: Prior to assay, HER18 cells were harvested using trypsin-EDTA, washed with phosphate-buffered saline (PBS) containing 5% serum and viable cells were counted. For culture of primary target cells, peripheral blood from CLL patients was subject to density centrifugation to obtain peripheral blood mononuclear cells (PBMC). Cell preparations were washed and then subject to positive selection of CD5^+CD19^+ CLL cells using magnetic beads (MACS, Miltenyi Biotech). Cell preparations were used fresh after selection. NK cells from CLL patients and healthy volunteers were enriched from peripheral blood collected in sodium citrate anticoagulant tubes and then subject to density centrifugation. Removal of non NK cells was performed using negative selection by MACS separation. […]
Lytic granule release was determined as follows. […] Degranulation was evaluated via by flow cytometery by externalization of CD107a, a protein normally present on the inner leaflet of lytic granules, and gating on NK cells (CD3-CD16^+ lymphocytes). The percentage of CD107a positive NK cells was quantified by comparison with a negative control (isotype control, unstained cells/FMO). Control cultures (NK cells cultured without target cells, or NK, target cell co-cultures in the absence of appropriate monoclonal antibody) were also evaluated; all experiments were performed in triplicate.
The target of another data set is CYP3A4 (Homo sapiens, UniProt P08684). The experiment in a line: In vitro loss of parent drug as catalyzed by CYPs. The format is in vitro ADME.
Data set [9] deals with pancreatic cancer (KPC mice). The experiment in a line: KPC pancreatic cancer mouse model. The format is in vivo. An excerpt: The KPC mouse model recapitulates many of the molecular, histopathologic, and clinical features of human disease (Westphalen and Olive, Cancer J. 2012, 18, 502-510). Mice were enrolled after identification of spontaneously appearing tumors in the pancreas that were ≥100 mm^3 (as assessed by high-resolution ultrasonography).

The subject of data set [10] is NK cells and MDSC subsets in peripheral blood. The experiment in a line: Flow cytometry of peripheral blood cell subsets in CLL patients. The note with it: patients with falling ALC counts; 28 days of dosing. The format is in vivo, human. The method, then:
PBMCs were stained with monoclonal antibodies conjugated to fluorescent tags (flourochromes) to identify cell subsets via flow cytometry. Non-viable cells were excluded from the analysis using the dye 7-aminoactinomycin D (7-AAD). To produce the metric of percent change, the following steps were taken. First, each cell subset was defined by hierarchical flow cytometry gating. Then, the change in frequency (between day 1 and day 28) was calculated for each cell subset. MDSC subsets were measured as a % of all myeloid cells. T cell subsets were measured as a % of all CD3^+ cells, and NK cells were measured as a % of all live CD45^+ cells. […] A cycle is 28 days. A trend is observed wherein patients with decreasing ALC % had increasing MDSC (monocytic) %. This may include patients who had quickly resolving lymphocytosis and those with no initial lymphocytosis. […] This may include patients who had quickly resolving lymphocytosis and those having no initial lymphocytosis. The effects in FIG. 47 to FIG. 50 are observed in multiple cohorts, at doses including 100 mg BID, 200 mg QD, and 400 mg QD. In FIG. 51 and FIG. 52, the effects on NK cells and MDSC cells are compared to a number of other markers versus % change in ALC at C1D28 and C2D28. […] The effects on NK cells and MDSC cells are observed to be much more pronounced than on any of these other markers.

CYP3A4, sequence (P08684 whole entry): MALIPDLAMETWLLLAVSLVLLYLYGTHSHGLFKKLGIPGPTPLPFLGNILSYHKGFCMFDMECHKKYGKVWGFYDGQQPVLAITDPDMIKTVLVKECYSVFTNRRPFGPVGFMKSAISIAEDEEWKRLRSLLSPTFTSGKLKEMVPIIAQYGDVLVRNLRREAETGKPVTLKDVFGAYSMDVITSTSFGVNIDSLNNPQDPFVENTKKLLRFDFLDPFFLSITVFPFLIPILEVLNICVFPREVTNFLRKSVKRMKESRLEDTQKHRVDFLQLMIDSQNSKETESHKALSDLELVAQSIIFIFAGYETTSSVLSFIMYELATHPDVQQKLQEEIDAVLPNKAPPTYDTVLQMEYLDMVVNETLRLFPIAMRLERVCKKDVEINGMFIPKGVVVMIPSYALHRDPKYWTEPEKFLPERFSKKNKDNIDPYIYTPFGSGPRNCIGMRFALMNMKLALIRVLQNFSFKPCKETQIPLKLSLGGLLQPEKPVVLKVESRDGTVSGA
T1 sequence (P35991 whole entry): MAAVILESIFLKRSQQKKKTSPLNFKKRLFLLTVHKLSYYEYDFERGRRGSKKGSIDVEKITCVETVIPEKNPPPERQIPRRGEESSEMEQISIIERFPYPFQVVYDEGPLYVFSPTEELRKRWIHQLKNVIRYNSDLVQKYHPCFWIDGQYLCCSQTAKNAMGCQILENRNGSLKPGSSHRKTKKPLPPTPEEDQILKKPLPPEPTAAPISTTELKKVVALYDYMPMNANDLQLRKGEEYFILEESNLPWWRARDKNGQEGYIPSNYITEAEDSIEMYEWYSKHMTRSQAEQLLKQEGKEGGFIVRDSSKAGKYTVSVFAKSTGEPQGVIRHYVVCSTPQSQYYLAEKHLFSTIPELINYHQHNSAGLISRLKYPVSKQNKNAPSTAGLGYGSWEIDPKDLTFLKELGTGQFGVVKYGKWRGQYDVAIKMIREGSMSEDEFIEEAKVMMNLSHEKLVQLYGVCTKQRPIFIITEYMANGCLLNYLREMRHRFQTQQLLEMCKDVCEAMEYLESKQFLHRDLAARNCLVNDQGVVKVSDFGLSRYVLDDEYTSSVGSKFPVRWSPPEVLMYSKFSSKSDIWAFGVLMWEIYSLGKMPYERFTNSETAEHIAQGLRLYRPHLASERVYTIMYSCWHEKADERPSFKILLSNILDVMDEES

Regarding `CC#CC(=O)N1CCC[C@H]1c1nc(-c2ccc(C(=O)Nc3ccccn3)cc2)c2c(N)nccn12` [Formula (2), (S)-4-(8-amino-3-(1-(but-2-ynoyl)pyrrolidin-2-yl)imidazo[1,5-a]pyrazin-1-yl)-N-(pyridin-2-yl)benzamide], in [1], the “effect on rituximab-mediated ADCC, primary CLL samples (autologous)” value is recorded as “not inhibited”. For the same compound, the “CD8+ T cell viability” value in the data set on CD8+ T cells was “not observed”. Also, the “potential for clinical drug-drug interactions via CYP enzymes” value in the data set with CYP enzymes is given as “very unlikely to cause clinical drug-drug interactions”. For the same compound, in the data set on CXCL12 and CCL2, the “plasma CCL2 levels” value is given as “significant decrease” and the “plasma CXCL12 levels” value is “significant decrease”. Further, in the data set with CLL, the “absolute lymphocyte count (ALC)” value was “much smaller relative increase and much faster decrease in absolute lymphocyte count (ALC)”. The metabolites in hepatocytes entry in [2] was “two mono-oxidized metabolites and a glutathione conjugate”. For the same compound, on BTK, the “irreversible BTK occupancy in granulocytic and monocytic MDSCs” value is “Complete BTK occupancy”. Besides, the “functional observation battery: neurobehavioral effects, body temperature” value in data set [3] was “no adverse effects”. Moreover, the “body temperature, cardiovascular, ECG (including QT interval) parameters” value in [4] was “no meaningful changes”. The “CD8+ T cell function as % cytotoxicity” value in the data set with CD8+ T cell [5] is listed as “no effect on CD8^+ T cell function as measured by % cytotoxicity relative to vehicle”. Moreover, the “inhibition of expression of activation markers CD69 and CD86” value in [6] was “more potent at inhibiting expression of activation makers than Formula (10) (ibrutinib)”. Moreover, the “CD8+ T cell function as IFN-γ level” value in the data set on CD8+ T cell [7] is “no effect on CD8^+ T cell function as measured by IFN-γ level relative to vehicle”. The “inhibition of trastuzumab-stimulated NK cell degranulation” value in [8] was “no inhibitory effect”. At CYP3A4, the “CYP responsible for metabolism” value was “metabolized by CYP3A4”. Further, in data set [9] (15 mg/kg BID), the “CD8+ cells in tumor tissues” value was “significant increase”, the “MDSCs in tumor tissues” value was “significantly reduced”, the “Tregs in tumor tissues” value is reported as “significantly reduced” and the “immunosuppressive TAMs in tumor tissues” value was “significantly reduced”. The “survival at day 28” value in [9] (15 mg/kg BID orally) was 5/6. Besides, the “average tumor volume, day 28” value in data set [9] (15 mg/kg BID orally, day 28) is recorded as 272 mm^3. In addition, the “average tumor volume, predose” value in data set [9] (15 mg/kg BID orally, predose) is 165 mm^3. Further, the “NK cells and monocytic MDSC subsets in peripheral blood” value in data set [10] is given as “increase in frequency”.
